In patent publication US20250250298A1, “ONCOLYTIC PEPTIDE AND USE THEREOF” (Rise Biopharmaceuticals Inc., priority 2022, published 2025):
Where a SMILES comes first, the peptide text is derived from it. Where no end group is shown, it is not given here.

Key:
HFW (Human fibroblast) = assay: MTT cytotoxicity, HFW; assay type: cell-based; conditions: 24 hours incubation
From the text: (§1) The MTT assay is a colorimetric method for measuring the activity of enzymes in living cells that reduces Thiazolyl blue tetrazolium bromide (MTT) to formazan dyes showing a purple color. In this embodiment, a colorimetric 3-(4.5-dimethylthiazol-2-yl)-2.5-diphenyltetrazodium bromide (MTT) viability assay was used to assess the in vitro cytotoxicity of oncolytic peptides.
(§2) The half inhibition concentration (IC50) is the concentration required by the oncolytic peptides to reach fifty percent inhibition. In one embodiment, the oncolytic peptides were used for IC50 test via MTT colorimetric assay.
(§3) Human lung cancer lines PC9 and A549 and murine pancreatic cancer cell line Panc02 were cultured in RPMI medium supplemented with 10% fetal bovine serum and antibiotic in this embodiment. Additionally, murine hepatoma cell line Hepa 1-6, murine melanoma cell line B16-F10, murine fibrosarcoma cell line MN-11, murine mammary cancer cell line E0771 and human diploid fibroblast (HFW) were cultured in DMEM medium supplemented with 10% fetal bovine serum and antibiotic. Cells were cultured in a humidified incubator containing 5% CO2 at 37° C.
(§4) All cancer cell lines were seeded in a 96-well plate with a concentration of 5000-8000 cells/100 μl/well and incubated for 24 hrs. After medium was removed, 100 μl fresh medium containing peptide (ranging from 50 μM to 0.8 μM) was added to the wells. Following 24 hours incubation, fresh medium with MTT (0.5 mg/ml) was replaced and incubated for 3 hours. After medium/MTT was removed, DMSO was added at 100 μl for dissolving the formazan crystal. Cell survival rate was calculated by measuring the absorbance at 540 nm using a Multi-labeled Microplate Reader (Sunrise™, TECAN).

[1] = tested on: HUVEC (Human Umbilical Vein Endothelial (Cell)); assay: MTT cytotoxicity, HUVEC; assay type: cell-based; conditions: 24 hours incubation
From the text: as §1, §2, §4

[2] = tested on: EO771 (Murine mammary adenocarcinoma); assay: MTT cytotoxicity, EO771; assay type: cell-based; conditions: EO771, 24 hours incubation
From the text: as §1, §2, §3, §4

[3] = tested on: Hepa I-6 (Murine hepatocellular carcinoma); assay: MTT cytotoxicity, Hepa 1-6; assay type: cell-based; conditions: Hepa I-6, 24 hours incubation
From the text: as §1, §2, §3, §4

[4] = tested on: B16-F10 (Murine skin malignant melanoma); assay: MTT cytotoxicity, B16-F10; assay type: cell-based; conditions: B16-F10, 24 hours incubation
From the text: as §1, §2, §3, §4

[5] = tested on: MN-11 (Murine fibrosarcoma); assay: MTT cytotoxicity, MN-11; assay type: cell-based; conditions: MN-11, 24 hours incubation
From the text: as §1, §2, §3, §4

Panc02 = assay: MTT cytotoxicity, Panc02; assay type: cell-based, murine; conditions: Panc02, 24 hours incubation
From the text: as §1, §2, §3, §4

[6] = tested on: PC9 (Human non-small cell lung cancer cell); assay: MTT cytotoxicity, PC9; assay type: cell-based; conditions: PC9, 24 hours incubation
From the text: as §1, §2, §3, §4

[7] = tested on: A549 (Human non-small cell lung cancer cell); assay: MTT cytotoxicity, A549; assay type: cell-based; conditions: A549, 24 hours incubation
From the text: as §1, §2, §3, §4

[8] = tested on: C9 (Human oral cancer cell); assay: MTT cytotoxicity, C9; assay type: cell-based; conditions: C9, 24 hours incubation
From the text: as §1, §2, §4

[9] = tested on: OECM-1 (Human oral cancer cell); assay: MTT cytotoxicity, OECM-1; assay type: cell-based; conditions: OECM-1, 24 hours incubation
From the text: as §1, §2, §4

[10] = tested on: SAS (Human tongue carcinoma); assay: MTT cytotoxicity, SAS; assay type: cell-based; conditions: 24 hours incubation
From the text: as §1, §2, §4

[11] = tested on: HepG2 Cancer Cells (Human hepatocellular carcinoma); assay: MTT cytotoxicity, HepG2; assay type: cell-based; conditions: HepG2, 24 hours incubation
From the text: as §1, §2, §4

[12] = tested on: NCI-N87 (Human gastric carcinoma); assay: MTT cytotoxicity, NCI-N87; assay type: cell-based; conditions: NCI-N87, 24 hours incubation
From the text: as §1, §2, §4

[13] = tested on: HCT-15 (Human colorectal cancer); assay: MTT cytotoxicity, HCT-15; assay type: cell-based; conditions: HCT-15, 24 hours incubation
From the text: as §1, §2, §4

[14] = tested on: A375 (human malignant melanoma); assay: MTT cytotoxicity, A375; assay type: cell-based; conditions: A375, 24 hours incubation
From the text: as §1, §2, §4

RBC (Human blood cell) = assay: Cytotoxicity, RBC; assay type: cell-based
From the text: as §2

[15] = Peptide stability in serum; assay type: in vitro ADME; conditions: 25% (vol/vol) bovine calf serum
Description: Since this kind of peptide is highly toxic, the hope is that the peptide can be decomposed after inducing cancer cells to release danger-associated molecular patterns (DAMPs), and will not stay in the body for too long. After exposure to 25% (vol/vol) bovine calf serum, the residues of peptides were analyzed by liquid chromatography, and the stability at different time points was calculated.

[16] = read-out: Serum stability (residual peptide)

Row | Compound | IC50 (HFW (Human fibroblast)) [µM] | IC50 [1] [µM] | IC50 [2] [µM] | IC50 [3] [µM] | IC50 [4] [µM] | IC50 [5] [µM] | IC50 (Panc02) [µM] | IC50 [6] [µM] | IC50 [7] [µM] | IC50 [8] [µM] | IC50 [9] [µM] | IC50 [10] [µM] | IC50 [11] [µM] | IC50 [12] [µM] | IC50 [13] [µM] | IC50 [14] [µM] | IC50 (RBC (Human blood cell)) [µM] | Serum stability (residual peptide) ([15]; 0 hr) [%] | remaining at 0.5 h [15, 16] [%] | remaining at 2 h [15, 16] [%] | further results
1 | KKKKRRKKWRKWLKWLAKK-NH2 [SEQ ID NO: 7, KKKK-RR-KK-WRK-WLK-WLA-KK-NH2] | 12 | 3.95 | 6.16 | 4.92 | 15.3 | 5.73 | 10.6 | 2.93 | 3.3 | 9.06 | 10.2 | 7.67 | 12.1 | 6.16 | 7.13 | 4.01 | 50.5 | 100.00 | 101 | 72.1 | Serum stability (residual peptide) ([15]; 1 hr): 123.30%; remaining at 4 h [15, 16]: 59.5%; remaining at 6 h [15, 16]: 54.4%; remaining at 8 h [15, 16]: 44.4%; metabolised at 8 h ([15]; after eight hours, read-out: Decrease of peptide in serum): ~56%; metabolised at 4 h ([15]; at the fourth hour, read-out: Decrease of peptide in serum): ~40%
2 | CC(C)C[C@H](NC(=O)[C@H](Cc1ccc2ccccc2c1)NC(=O)[C@H](CCCCN)NC(=O)[C@H](CC(C)C)NC(=O)[C@H](Cc1c[nH]c2ccccc12)NC(=O)[C@H](CCCCN)NC(=O)[C@H](CCCNC(=N)N)NC(=O)[C@H](Cc1c[nH]c2ccccc12)NC(=O)[C@H](CCCCN)NC(=O)[C@H](CCCCN)NC(=O)[C@H](CCCCN)NC(=O)[C@H](CCCCN)NC(=O)[C@H](CCCCN)NC(=O)[C@H](CCCCN)NC(=O)[C@H](CCCCN)NC(=O)[C@@H](N)CCCCN)C(=O)N[C@@H](C)C(=O)N[C@@H](CCCCN)C(=O)N[C@@H](CCCCN)C(N)=O [SEQ ID NO: 2, KKKK-KK-KK-WRK-WLK-Nal-LA-KK-NH2] (HELM PEPTIDE1{K.K.K.K.K.K.K.K.W.R.K.W.L.K.[O=C([C@H](Cc1ccc2ccccc2c1)N[*:1])[*:2]].L.A.K.K.[am]}$$$$V2.0; N-terminus assumed) | 11 | 9.03 | 10.1 | 8.5 | 13.7 | 13.4 | 7.17 | 4.36 | 6.34 | 16 | 15.5 | 15.8 | 11 | 8.58 | 6.6 | 5.59 | 45 | – | – | – | –
3 | KKKKRRKKWLKWLKWLKKK-NH2 [SEQ ID NO: 4, KKKK-RR-KK-WLK-WLK-WLK-KK-NH2] | 20.5 | 4.66 | 13.9 | 10.5 | 16.3 | 13.2 | 16 | 7.87 | 8.89 | 16.6 | 18 | 18.6 | 14.6 | 15.1 | 10.8 | 9.98 | 58.6 | – | – | – | –
4 | CC(C)C[C@H](NC(=O)[C@H](Cc1ccc2ccccc2c1)NC(=O)[C@H](CCCCN)NC(=O)[C@H](CC(C)C)NC(=O)[C@H](Cc1c[nH]c2ccccc12)NC(=O)[C@H](CCCCN)NC(=O)[C@H](CC(C)C)NC(=O)[C@H](Cc1c[nH]c2ccccc12)NC(=O)[C@H](CCCNC(=N)N)NC(=O)[C@H](CCCNC(=N)N)NC(=O)[C@H](CCCCN)NC(=O)[C@H](CCCCN)NC(=O)[C@H](CCCCN)NC(=O)[C@@H](N)CCCCN)C(=O)N[C@@H](CCCCN)C(=O)N[C@@H](CCCCN)C(N)=O [SEQ ID NO: 6, KKKK-RR-WLK-WLK-Nal-LKK-NH2] (HELM PEPTIDE1{K.K.K.K.R.R.W.L.K.W.L.K.[O=C([C@H](Cc1ccc2ccccc2c1)N[*:1])[*:2]].L.K.K.[am]}$$$$V2.0; N-terminus assumed) | 7.2 | 6.84 | 10 | 8.46 | 10.5 | 5.56 | 8.81 | 3.36 | 7.07 | 12.7 | 16.4 | 15.6 | 14.2 | 9.41 | 8.03 | 10.8 | 35.4 | – | – | – | –
5 | CC(C)C[C@H](NC(=O)[C@H](Cc1ccc2ccccc2c1)NC(=O)[C@H](CCCCN)NC(=O)[C@H](CC(C)C)NC(=O)[C@H](Cc1c[nH]c2ccccc12)NC(=O)[C@H](CCCCN)NC(=O)[C@H](CCCNC(=N)N)NC(=O)[C@H](Cc1c[nH]c2ccccc12)NC(=O)[C@H](CCCCN)NC(=O)[C@H](CCCCN)NC(=O)[C@H](CCCNC(=N)N)NC(=O)[C@H](CCCNC(=N)N)NC(=O)[C@H](CCCCN)NC(=O)[C@H](CCCCN)NC(=O)[C@H](CCCCN)NC(=O)[C@@H](N)CCCCN)C(=O)N[C@@H](C)C(=O)N[C@@H](CCCCN)C(=O)N[C@@H](CCCCN)C(N)=O [SEQ ID NO: 8, KKKK-RR-KK-WRK-WLK-Nal-LA-KK-NH2] (HELM PEPTIDE1{K.K.K.K.R.R.K.K.W.R.K.W.L.K.[O=C([C@H](Cc1ccc2ccccc2c1)N[*:1])[*:2]].L.A.K.K.[am]}$$$$V2.0; N-terminus assumed) | 7.29 | 5.6 | 3.3 | 3.59 | 9.73 | 3.49 | 2.66 | 1.58 | 2.3 | 5.3 | 5.97 | 3.98 | 8.18 | 3.16 | 3.16 | 3.59 | 37.6 | 100.00 | 105 | 106 | remaining at 1 h ([15]; 1 hr, read-out: Serum stability (residual peptide)): 77.4%; remaining at 4 h [15, 16]: 70.4%; remaining at 6 h [15, 16]: 71.3%; remaining at 8 h [15, 16]: 66.5%
